The values below are quoted from earlier work in US20060251704A1, “Methods and devices for efficacious treatment of aphthous ulcers” (priority 2005, published 2006).

For the series, the system named is aphthous ulcers (RAS). To be noted: by the 6th day.

Molecules are shown by their SMILES.

Consider `CC(C)c1ccc2oc3nc(N)c(C(=O)O)cc3c(=O)c2c1` [amlexanox], for which the “patients with healed ulcers” value (vehicle control 54.7%) is 65.6%. The patients pain free (patients with RAS, control group 72.8%) is reported as 82.8%.
